Test results taken from ChEMBL document CHEMBL5137093, “Improving Drug Delivery While Tailoring Prodrug Activation to Modulate Cmax and Cmin by Optimization of (Carbonyl)oxyalkyl Linker-Based Prodrugs of Atazanavir” (J Med Chem, 2022).
Values after ≈ are worked out from the molar mass of the structure shown.

How the values were obtained:
[1] = Aqueous stability of the compound in HCL at pH 1 assessed as compound half life measured after 24 hrs by UPLC analysis; type: physicochemical; details: for half-life: aqueous HCl, pH 1; for t1/2: buffer, pH 1, 24 h, 24 h
[2] = Aqueous stability of the compound in acetate buffer at pH 4 assessed as compound half life measured after 24 hrs by UPLC analysis; type: physicochemical; details: for half-life: acetate buffer, pH 4; for t1/2: buffer, pH 4, 24 h, 24 h
[3] = Aqueous stability of the compound in phosphate buffer at pH 6.5 assessed as compound half life measured after 24 hrs by UPLC analysis; type: physicochemical; details: for t1/2: buffer, pH 6.5, 24 h, 24 h; for half-life: phosphate buffer, pH 6.5
[4] = Aqueous solubility of compound at pH 1 by UPLC analysis; type: physicochemical
[5] = Aqueous solubility of compound at pH 4 by UPLC analysis; type: physicochemical
[6] = Cmax in Sprague-Dawley rat at 3 ml/kg,po measured upto 24 hrs by UPLC-MS/MS analysis; type: ADME; parameters: dose 3 ml/kg, time < 24 hrs, route po; details: in vivo
[7] = Tmax in Sprague-Dawley rat at 3 ml/kg,po measured upto 24 hrs by UPLC-MS/MS analysis; type: ADME; details: in vivo
[8] = AUClast in Sprague-Dawley rat at 3 ml/kg,po measured upto 24 hrs by UPLC-MS/MS analysis; type: ADME; parameters: time < 24 hrs, dose 3 ml/kg, route po; details: in vivo; for AUClast: 24 h; for AUC(0-t) at 24 h: Sprague-Dawley, 3 ml/kg
[9] = Relative Cmax ratio of Atazanavir in Sprague-Dawley rat at 3 ml/kg,po measured upto 24 hrs by UPLC-MS/MS analysis; type: ADME; details: in vivo
[10] = Relative AUC ratio of Atazanavir in Sprague-Dawley rat at 3 ml/kg,po measured upto 24 hrs by UPLC-MS/MS analysis; type: ADME; details: in vivo
[11] = Fold ratio of total AUC of Atazanavir in Sprague-Dawley rat at 3 ml/kg,po measured upto 24 hrs by UPLC-MS/MS analysis; type: ADME; details: in vivo
[12] = Ratio of AUC of Atazanavir in Sprague-Dawley rat at 3 ml/kg,po measured upto 24 hrs by UPLC-MS/MS analysis; type: ADME; details: in vivo
[13] = Ratio of Cmax/Cmin of Atazanavir in Sprague-Dawley rat at 3 ml/kg,po measured after 24 hrs by UPLC-MS/MS analysis; type: ADME; details: in vivo
[14] = aqueous medium, read-out: solubility

Row | half-life [1] | half-life [2] | t1/2 [3] | solubility [4, 14] | solubility [5, 14] | Cmax ([6]; 24 h) | Tmax ([7]; Sprague-Dawley, read-out: Tmax) | AUClast [8] | Ratio [9] | Ratio [10] | Ratio [11] | Ratio [12] | t1/2 [2] | solubility ([4]; buffer) | solubility ([5]; buffer) | half-life [3] | Ratio [13] | Tmax ([7]; po, 24 h) | SMILES | other results
1 | > 500 h | > 500 h | 27.3 h | > 2100 µg/mL | > 1500 µg/mL | 805 nM | 0.3 h | 0.724 µM·h | 3.8 | 2.8 | 4.6 | 0.68 |  |  |  |  |  |  | CCC(C)C(OC(=O)O[C@@H](CN(Cc1ccc(-c2ccccn2)cc1)NC(=O)[C@@H](NC(=O)OC)C(C)(C)C)[C@H](Cc1ccccc1)NC(=O)[C@@H](NC(=O)OC)C(C)(C)C)OC(=O)[C@@H](N)C(C)C (mixture of isomers) | 
2 |  |  | 11.4 h |  |  |  |  |  |  |  |  |  | 376.3 h | > 3000 µg/mL | > 2200 µg/mL |  |  |  | COC(=O)N[C@H](C(=O)N[C@@H](Cc1ccccc1)[C@H](CN(Cc1ccc(-c2ccccn2)cc1)NC(=O)[C@@H](NC(=O)OC)C(C)(C)C)OC(=O)OC(OC(=O)CCN)C(C)C)C(C)(C)C (stereo in doubt; 3aa) | t1/2 [1]: 376.3 h
3 | > 500 h | 376 h |  |  | > 910 µg/mL |  |  |  |  |  |  |  |  | > 960 µg/mL |  | 8.9 h |  |  | COC(=O)N[C@H](C(=O)N[C@@H](Cc1ccccc1)[C@H](CN(Cc1ccc(-c2ccccn2)cc1)NC(=O)[C@@H](NC(=O)OC)C(C)(C)C)OC(=O)OC(OC(=O)C[C@H](N)Cc1cc(F)c(F)cc1F)C(C)C)C(C)(C)C (stereo in doubt; 3ab) | 
4 |  |  | 7.4 h |  |  |  | 3 h |  | 1.2 | 6.1 | 27 | 3.4 | 334.3 h | > 2400 µg/mL | 960 µg/mL (≈ 926 µM) |  | 36.4 |  | COC(=O)N[C@H](C(=O)N[C@@H](Cc1ccccc1)[C@H](CN(Cc1ccc(-c2ccccn2)cc1)NC(=O)[C@@H](NC(=O)OC)C(C)(C)C)OC(=O)OC(OC(=O)C[C@H](N)Cc1cc(F)c(F)cc1F)C(C)C)C(C)(C)C (stereo in doubt; 3ac) | Cmax ([6]; Sprague-Dawley, 3 ml/kg): 989 nM; AUC(0-t) at 24 h [8]: 8.01 µM·h
5 | 158 h | 41.8 h |  | > 1600 µg/mL | > 2400 µg/mL | 34 nM | 0.4 h | 0.019 µM·h | 0.9 | 0.8 | 0.9 | 0.06 |  |  |  | 3.6 h |  |  | COC(=O)N[C@H](C(=O)N[C@@H](Cc1ccccc1)[C@H](CN(Cc1ccc(-c2ccccn2)cc1)NC(=O)[C@@H](NC(=O)OC)C(C)(C)C)OC(=O)OC(OC(=O)[C@H](C)N)C(C)C)C(C)(C)C (stereo in doubt; 3p) | 
6 |  |  | 2.7 h |  |  | 1900 nM |  | 2.129 µM·h | 2.3 | 1.8 | 7.3 | 3.09 | 30.4 h | > 1700 µg/mL | > 1800 µg/mL |  | 1505 | 0.3 h | COC(=O)N[C@H](C(=O)N[C@@H](Cc1ccccc1)[C@H](CN(Cc1ccc(-c2ccccn2)cc1)NC(=O)[C@@H](NC(=O)OC)C(C)(C)C)OC(=O)OC(OC(=O)[C@H](C)N)C(C)C)C(C)(C)C (stereo in doubt; 3q) | t1/2 [1]: 125.4 h
7 | > 500 h | > 500 h | 10.6 h | > 2600 µg/mL | > 2500 µg/mL |  |  |  | 3.4 | 3.6 | 3.6 | 0 |  |  |  |  | 761.7 |  | COC(=O)N[C@H](C(=O)N[C@@H](Cc1ccccc1)[C@H](CN(Cc1ccc(-c2ccccn2)cc1)NC(=O)[C@@H](NC(=O)OC)C(C)(C)C)OC(=O)OC(OC(=O)[C@@H](N)C(C)C)C(C)C)C(C)(C)C (stereo in doubt; 3r) | 
8 |  |  | 12 h | > 1400 µg/mL | > 1100 µg/mL |  |  |  | 2.1 | 1.3 | 1.3 | 0 | 136.8 h |  |  |  | 304.4 |  | COC(=O)N[C@H](C(=O)N[C@@H](Cc1ccccc1)[C@H](CN(Cc1ccc(-c2ccccn2)cc1)NC(=O)[C@@H](NC(=O)OC)C(C)(C)C)OC(=O)OC(OC(=O)[C@@H](N)CC(C)C)C(C)C)C(C)(C)C (stereo in doubt; 3t) | t1/2 [1]: > 500 h
9 |  |  | 5.9 h |  |  |  | 0.3 h |  | 2.9 | 2.1 | 2.4 | 0.13 | 59 h | > 1480 µg/mL | > 1600 µg/mL |  |  |  | COC(=O)N[C@H](C(=O)N[C@@H](Cc1ccccc1)[C@H](CN(Cc1ccc(-c2ccccn2)cc1)NC(=O)[C@@H](NC(=O)OC)C(C)(C)C)OC(=O)OC(OC(=O)[C@@H](N)CC(C)C)C(C)C)C(C)(C)C (stereo in doubt; 3u) | t1/2 [1]: 136.8 h; Cmax ([6]; Sprague-Dawley, 3 ml/kg): 182 nM; AUC(0-t) at 24 h [8]: 0.105 µM·h
10 | > 500 h | 334 h |  | > 1700 µg/mL | > 1500 µg/mL |  | 1.3 h |  | 6.9 | 8.7 | 8.7 | 0 |  |  |  | 10.1 h | 1309.3 |  | COC(=O)N[C@H](C(=O)N[C@@H](Cc1ccccc1)[C@H](CN(Cc1ccc(-c2ccccn2)cc1)NC(=O)[C@@H](NC(=O)OC)C(C)(C)C)OC(=O)OC(OC(=O)CCN)C(C)C)C(C)(C)C (stereo in doubt; 3z) | Cmax ([6]; Sprague-Dawley, 3 ml/kg): 6 nM; AUC(0-t) at 24 h [8]: 0.007 µM·h
11 |  |  | 13.4 h |  |  | 1840 nM |  | 1.658 µM·h | 3.7 | 3.2 | 7.5 | 1.34 | 334.4 h |  | > 2600 µg/mL |  | 1631.7 |  | CCC(C)C(OC(=O)O[C@@H](CN(Cc1ccc(-c2ccccn2)cc1)NC(=O)[C@@H](NC(=O)OC)C(C)(C)C)[C@H](Cc1ccccc1)NC(=O)[C@@H](NC(=O)OC)C(C)(C)C)OC(=O)[C@@H](N)C(C)C (stereo in doubt; 4k) | 
12 |  |  | 23.7 h |  |  | 27 nM |  | 0.006 µM·h | 1.9 | 2 | 2 | 0.01 |  | > 1200 µg/mL | > 1000 µg/mL |  | 721.4 | 0.3 h | COC(=O)N[C@H](C(=O)N[C@@H](Cc1ccccc1)[C@H](CN(Cc1ccc(-c2ccccn2)cc1)NC(=O)[C@@H](NC(=O)OC)C(C)(C)C)OC(=O)OC(OC(=O)[C@@H](N)C(C)C)C(C)(C)C)C(C)(C)C (stereo in doubt; 4m) | 
13 |  |  | 12.7 h |  |  | 395 nM |  | 0.406 µM·h | 1.4 | 1.1 | 2.1 | 0.98 | > 500 h | > 2000 µg/mL | > 1100 µg/mL |  |  | 0.3 h | COC(=O)N[C@H](C(=O)N[C@@H](Cc1ccccc1)[C@H](CN(Cc1ccc(-c2ccccn2)cc1)NC(=O)[C@@H](NC(=O)OC)C(C)(C)C)OC(=O)OC(OC(=O)[C@@H](N)C(C)C)C1CCCCC1)C(C)(C)C (stereo in doubt; 4o) | 
14 | > 500 h | 376 h |  | > 2500 µg/mL | > 1400 µg/mL |  |  | 0.262 µM·h | 4.7 | 5.3 | 6 | 0.13 |  |  |  | 4.7 h | 364.4 | 0.3 h | CN[C@H](C(=O)OC(OC(=O)O[C@@H](CN(Cc1ccc(-c2ccccn2)cc1)NC(=O)[C@@H](NC(=O)OC)C(C)(C)C)[C@H](Cc1ccccc1)NC(=O)[C@@H](NC(=O)OC)C(C)(C)C)C(C)C)C(C)C (stereo in doubt; 5e) | Cmax ([6]; Sprague-Dawley, 3 ml/kg): 342 nM
15 |  |  | 2.87 h |  |  | 382 nM |  | 0.996 µM·h | 2.1 | 4.4 | 7 | 0.59 | > 500 h | > 2000 µg/mL | > 1900 µg/mL |  | 194.1 | 0.7 h | CN[C@H](C(=O)OC(OC(=O)O[C@@H](CN(Cc1ccc(-c2ccccn2)cc1)NC(=O)[C@@H](NC(=O)OC)C(C)(C)C)[C@H](Cc1ccccc1)NC(=O)[C@@H](NC(=O)OC)C(C)(C)C)C(C)C)C(C)C (stereo in doubt; 5f) | 
16 | > 500 h | 232 h |  | > 2200 µg/mL | > 1200 µg/mL |  |  |  |  |  |  |  |  |  |  | 6.1 h |  |  | COC(=O)N[C@H](C(=O)N[C@@H](Cc1ccccc1)[C@H](CN(Cc1ccc(-c2ccccn2)cc1)NC(=O)[C@@H](NC(=O)OC)C(C)(C)C)OC(=O)OC(OC(=O)[C@@H](NC(=O)[C@H](N)C(C)C)C(C)C)C(C)C)C(C)(C)C (stereo in doubt; 6g) | 
